Data as given in patent US20150224089A1, “COMBINATIONS OF IKKi/TBK1 INHIBITORS WITH BETA ADRENERGIC AGONISTS OR SYMPATHETIC NERVOUS SYSTEM ACTIVATORS” (THE REGENTS OF THE UNIVERSITY OF MICHIGAN, priority 2014, published 2015).

Legend:
3T3-L1 adipocytes [1] = experiment: cAMP levels in 3T3-L1 adipocytes; assay type: cell-based
Protocol: (§1) (A) Glycerol release from 3T3-L1 adipocytes treated with or without different concentrations of TNFα as indicated for 24 hr followed by treatment with or without 10 μM ISO or 50 μM FSK. (B) cAMP levels from 3T3-L1 adipocytes treated with or without 100 ng/ml TNFα for 24 hr followed by treatment with or without 10 μM ISO or 50 μM FSK in the presence or absence of pretreatment of 50 μM Amlexanox (Am). (C) cAMP levels from 3T3-L1 adipocytes treated with or without 100 ng/ml TNFα for 24 hr followed by treatment with or without 50 μM FSK in the presence or absence of pretreatment of 1 μM CAY10576 (CAY). (D) Immunoblots of whole cell lysates from 3T3-L1 adipocytes treated with or without different concentrations of TNFα as same as FIG. 2A for 24 hr followed by treatment with or without 10 μM ISO or 50 μM FSK. Results were replicated in multiple experiments. ‘[’ indicates total HSL. ‘n.s.’ represents non-specific band. Arrow indicates CGI-58. (E) Immunoblots of whole cell lysates from 3T3-L1 adipocytes treated with or without 50 ng/ml TNFα or 100 μg/ml poly (I:C) for 24 hr followed by treatment with or without 10 μM ISO for 15 min in the presence or absence of pretreatment with increasing concentrations (0, 10, 50, and 200 μM) of amlexanox for 30 min.
(A) cAMP levels from 3T3-L1 adipocytes expressing empty vector, Flag-IKKε, or Flag-TBK1 treated with or without 50 μM FSK, 250 μM IBMX, or together for 15 min. (B) cAMP levels from 3T3-L1 adipocytes expressing empty vector, Flag-IKKε, or Flag-TBK1 treated with or without 10 μM ISO or 50 μM FSK together with or without 10 μM Zardaverine (Zarda) for 15 min. (C) 32P phospho-image of in vitro kinase reaction using either immunoprecipitated HA-PDE3B from HEK293T cells or 1 μg MBP (myelin basic protein) as a substrate with recombinant kinases as indicated. (D) Immunoblots of immunoprecipitation with anti-HA antibodies followed by treatment with or without CIP (top panel) and whole cell lysates (bottom panel) from Cos-1 cells co-expressing HA-PDE3B with Flag-IKKε/TBK1 or Flag-IKKε/TBK1 K38A. D.E. stands for dark exposure and L.E. stands for light exposure. (E) Immunoblots of GST-14-3-3 pulldown from HEK293T cells co-expressing HA-PDE3B with Flag-TBK1 or Flag-TBK1 K38A.
Obesity is accompanied by infiltration of proinflammatory macrophages into adipose tissue; these cells secrete inflammatory cytokines, such as TNFα, which generate insulin resistance by stimulating catabolic pathways (Hotamisligil, 2006; Lumeng et al., 2007; Ye and Keller, 2010; Ouchi et al., 2011; herein incorporated by reference in their entireties). Although TNFα is known to increase lipolysis in adipocytes (Zhang et al., 2002; Souza et al., 2003; Green et al., 2004; Plomgaard et al., 2008; herein incorporated by reference in their entireties), there is also evidence of a counterinflammatory response in obesity that may serve to repress energy expenditure (Gregor and Hotamisligil, 2011; Saltiel, 2012; Calay and Hotamisligil, 2013; Reilly et al., 2013; herein incorporated by reference in their entireties). Experiments were conducted during development of embodiments of the present invention using TNFα to model the inflammatory milieu of obese adipose tissue in cell culture to determine whether the cytokine might also regulate β-adrenergic signaling in this context. While short-term treatment with TNFα augmented the increase in cAMP produced by forskolin treatment, this effect declined after 12 hr. […] Thus, the catabolic effects of the proinflammatory cytokine TNFα in adipocytes are transient and followed by an inhibitory phase.
Treatment of 3T3-L1 adipocytes with TNFα for 24 hr induced the expression of IKKε and increased TBK1 phosphorylation at the active site in a manner that was dependent on the activity of IKKβ and the NFκB pathway (Reilly et al., 2013; herein incorporated by reference in its entirety). […]

3T3-L1 adipocytes [2] = experiment: Ucp1 gene expression in 3T3-L1 adipocytes; assay type: cell-based; conditions: empty vector-expressing cells; 10 μM for 4 hr; treated relative to control samples
Protocol: (§2) (A) Fold increase in Ucp1 expression in 3T3-L1 adipocytes expressing empty vector, Flag-IKKε, or Flag-IKKε K38A following treatment with or without 10 μM ISO (black bars) or 10 μM CL-316,243 (CL, gray bars) for 4 hr. (B) Glycerol release from 3T3-L1 adipocytes expressing empty vector (white bars), Flag-IKKε (black bars), or Flag-IKKε K38A (gray bars) treated with or without 10 μM ISO or 10 μM CL. (C) Immunoblots of whole cell lysates from FIG. 1B. Results were replicated in triplicate. D.E. stands for dark exposure and L.E. stands for light exposure. (D) Immunoblots of whole cell lysates from 3T3-L1 adipocytes expressing empty vector or Flag-IKKε treated with or without 50 μM FSK for 15 min. (E) cAMP levels from 3T3-L1 adipocytes expressing empty vector, Flag-IKKε, or Flag-IKKε K38A treated with or without 10 μM ISO or 50 μM FSK for 15 min.
Sympathetic activation of adipose tissue is involved in maintaining energy balance by stimulating lipolysis and fat oxidation (Coppack et al., 1994; Langin, 2006; Festuccia et al., 2011; herein incorporated by reference in their entireties). Activation of β-adrenergic signaling by either β-adrenergic agonists or cold exposure in white and brown adipose tissue initiates a cascade of events through cyclic AMP (cAMP), culminating in the transcriptional upregulation of Ucp1, which results in increased proton leak and energy expenditure (Himms-Hagen et al., 2000; Cao et al., 2004; Yehuda-Shnaidman et al., 2010; herein incorporated by reference in their entireties). […] This effect was further analyzed by overexpressing IKKε in 3T3-L1 adipocytes and examining Ucp1 gene expression after treatment with the non-selective β-adrenergic agonist, isoproterenol (ISO), or the β3-adrenergic agonist, CL-316,243. Fold difference in Ucp1 gene expression was calculated by normalization of relative Ucp1 mRNA levels in treated relative to control samples. […] The induction of Ucp1 gene expression in response to ISO or CL-316,243 was blunted when WT IKKε was overexpressed in these cells. […]

3T3-L1 adipocytes [3] = experiment: Glycerol release (lipolysis) from 3T3-L1 adipocytes; assay type: cell-based; conditions: for lipolysis (glycerol release): empty vector-expressing cells, 10 μM
Protocol: as §2, §1
The obesity-dependent increase was modeled in the noncanonical IKKs by overexpressing IKKε in 3T3-L1 adipocytes, followed by assay of glycerol release in response to ISO or CL-316,243. […] Overexpression of TBK1 reduced phosphorylation of HSL in response to isoproterenol or the adenylyl cyclase activator, forskolin (FIG. 1). Identical results were obtained when IKKε was overexpressed in 3T3-L1 adipocytes stimulated with forskolin (FIG. 1D), as detected by western blotting with an anti-phospho-PKA substrate motif antibody. […]

3T3-L1 adipocytes [4] = experiment: Immunoblots of β-adrenergic/PKA signaling (HSL, perilipin, PKA substrate, p38 phosphorylation) in 3T3-L1 adipocytes; assay type: cell-based; conditions: treatment with Poly (I:C)
Protocol: as §1, with “Results were replicated in multiple experiments. ‘[’ indicates total HSL. ‘n.s.’ represents non-specific band.” left out
Experiments were conducted during development of embodiments of the present invention to determine whether the repression of β-adrenergic sensitivity produced by longer-term treatment with TNFα is due to increased activity of the noncanonical IKKs.

diet-induced obese mice = experiment: Serum FFA and glycerol after CL-316,243 injection in ND- or HFD-fed mice; assay type: in vivo; conditions: normal diet mice, vehicle and amlexanox-treated; 15 min after IP CL-316,243 injection
Protocol: (A) Fold increase in serum FFA (left panel) and glycerol (right panel) levels 15 min after CL-316,243 injection in ND- or HFD-fed mice treated with amlexanox or vehicle control for 4 days. (B) Glycerol release from ex vivo epididymal (left panel) and inguinal (right panel) WATs after 1 hr pretreatment with amlexanox or vehicle. CL-316,243 treatment was started at time zero. (C) Immunoblots in inguinal WAT lysates from FIG. 5B after 60 min of CL-316,243 treatment. (D) cAMP levels in epididymal WAT 20 min after CL-316,243 (CL) or saline control injection in HFD-fed mice treated with amlexanox or vehicle control for 4 days. (E) Immunoblots in epididymal WAT 5 min after CL-316,243 or saline control injection in HFD-fed mice treated with amlexanox or vehicle control for 4 days. (F) Relative oxygen comsumption of mice in each treatment group.
To test the functional importance of the noncanonical IKKs in maintaining energy balance in vivo, experiments were conducted during development of embodiments of the present invention to investigate whether the administration of a selective inhibitor of IKKε and TBK1, amlexanox, can reverse diet-induced catecholamine resistance in rodentsMice were fed a high fat or normal diet, treated them with amlexanox by oral gavage for 4 days (prior to the point when weight loss is seen), and then gave a single intraperitoneal (IP) injection of the β3-adrenergic agonist CL-316,243. Injection of CL-316,243 stimulated a threefold increase in serum FFA and glycerol levels in both vehicle and amlexanox-treated mice on normal diet (ND).

## CC(C)Cn1c(=O)n(C)c(=O)c2[nH]cnc21 [IBMX]
3T3-L1 adipocytes [1]; 250 μM IBMX, 50 μM FSK, 15 min
  cAMP production in response to forskolin in adipocytes expressing IKKε or TBK1: rescued the full stimulation of cAMP production

## CC(C)NCC(O)c1ccc(O)c(O)c1 (centres unmarked) [isoproterenol]
3T3-L1 adipocytes [2]
  increase in Ucp1 mRNA levels: 1.6 fold
3T3-L1 adipocytes [3]
  lipolysis (glycerol release): increased lipolysis

## Poly (I:C)
3T3-L1 adipocytes [3]; treatment with Poly (I:C)
  stimulation of lipolysis in response to β-adrenergic stimulation: reduced
3T3-L1 adipocytes [1]; treatment with Poly (I:C)
  stimulation of cAMP production in response to β-adrenergic stimulation: reduced
3T3-L1 adipocytes [4]
  stimulation of phosphorylation in response to β-adrenergic stimulation: reduced

## COc1cc2ncn(-c3cc(OCc4ccccc4S(C)(=O)=O)c(C#N)s3)c2cc1OC [CAY10576]
3T3-L1 adipocytes [1]; preincubation with 1 μM CAY10576, 100 ng/ml TNFα 24 hr, 50 μM FSK
  rescue of TNFα-decreased forskolin-stimulated cAMP production: largely rescued

## C[C@H](Cc1ccc2c(c1)OC(C(=O)[O-])(C(=O)[O-])O2)NC[C@H](O)c1cccc(Cl)c1.[Na+].[Na+] [CL-316,243]
3T3-L1 adipocytes [2]
  increase in Ucp1 mRNA levels: twofold
3T3-L1 adipocytes [3]
  lipolysis (glycerol release): increased lipolysis
diet-induced obese mice
  increase in serum FFA levels: threefold
  increase in serum glycerol levels: threefold
